Test results published in patent US9233078B2, “Nanoparticles comprising a non-ionizable polymer and an Amine-functionalized methacrylate copolymer” (Bend Research, Inc., priority 2007, dated 2016).
In brackets after ≈: the same amount, converted by molar mass. Each block holds one molecule with its values, some of them ahead of it.

What was measured:
[1] = Aqueous solubility of the drugs; type: physicochemical; conditions: water
[2] = for Observations: pH 6.5
Description: The polymer is a poorly aqueous soluble non-ionizable polymer. […] An appropriate PBS solution is an aqueous solution comprising 20 mM sodium phosphate (Na2HPO4), 47 mM potassium phosphate (KH2PO4), 87 mM NaCl, and 0.2 mM KCl, adjusted to pH 6.5 with NaOH. A test to determine whether the polymer is poorly aqueous soluble may be performed as follows. The polymer is initially present in bulk powder form with average particle sizes of greater than about 1 micron. The polymer alone is administered at a concentration of 0.2 mg/mL to the PBS solution and stirred for approximately 1 hour at room temperature. Next, a nylon 0.45 μm filter is weighed, and the polymer solution is filtered. The filter is dried overnight at 40° C., and weighed the following morning. The amount of polymer dissolved is calculated from the amount of polymer added to the PBS solution minus the amount of polymer remaining on the filter (mg). […] First, 0.2 mg/mL of the polymer was added to a PBS solution consisting of 20 mM Na2HPO4, 47 mM KH2PO4, 87 mM NaCl, and 0.2 mM KCl, adjusted to pH 6.5 with NaOH. The polymer was stirred in the PBS solution for approximately 1 hour at room temperature. Next, the polymer solution was filtered through a nylon 0.45 μm filter that was weighed dry prior to filtration. The filter was dried overnight at 40° C., and weighed the following morning. The amount of soluble polymer was calculated from the amount of polymer added to form the polymer solution minus the amount of polymer remaining on the filter.

Log P of Drug 1 = type: physicochemical; conditions: octanol/water
Description: The first property of hydrophobic drugs is that they are extremely hydrophobic. Log P, defined as the base 10 logarithm of the ratio of the drug solubility in octanol to the drug solubility in water, is a widely accepted measure of hydrophobicity. By “extremely hydrophobic” is meant that the Log P value of the drug is at least 4.0, preferably at least 4.5, and most preferably at least 5.0. Log P may be measured experimentally or calculated using methods known in the art. When using a calculated value for Log P, the highest value calculated using any generally accepted method for calculating Log P is used. Calculated Log P values are often referred to by the calculation method, such as Clog P, Alog P, and Mlog P. The Log P may also be estimated using fragmentation methods, such as Crippen's fragmentation method (27 J. Chem. Inf. Comput. Sci. 21 (1987)); Viswanadhan's fragmentation method (29 J. Chem. Inf. Comput. Sci. 163 (1989)); or Broto's fragmentation method (19 Eur. J. Med. Chem.-Chim. Theor. 71 (1984). Preferably the Log P value is calculated by using the average value estimated using Crippen's, Viswanadhan's, and Broto's fragmentation methods.

[3] = Free drug analysis, 100,000-dalton cutoff filtration and HPLC; type: physicochemical; conditions: 2.5 mgA/mL suspension in deionized water with dextrose, about 300 mOsm
Description: The suspension was filtered using a centrifuge tube filter with a 100,000-dalton molecular-weight cutoff. The filtrate solution was assayed by high-performance liquid chromatography (HPLC).

Molecule: CC[C@@H]1C[C@H](N(Cc2cc(C(F)(F)F)cc(C(F)(F)F)c2)C(C)=O)c2cc(C(F)(F)F)ccc2N1C(=O)OC(C)C [Drug 2, [2R,4S] 4-[acetyl-(3,5-bis-trifluoromethyl-benzyl)-amino]-2-ethyl-6-trifluoromethyl-3,4-dihydro-2H-quinoline-1-carboxylic acid isopropyl ester]
solubility [1]: < 1 µg/mL

Molecule: cellulose triacetate
Amount Soluble at pH 6.5 [2]: <0.001 mg/mL
Observations [2]: Fine particle

Molecule: ethylcellulose
Amount Soluble at pH 6.5 [2]: <0.001 mg/mL
Observations [2]: Fine particle

Molecule: CCNC1CN(CCCOC)S(=O)(=O)c2sc(S(N)(=O)=O)cc21 (centres unmarked) [Drug 5, brinzolamide, reference compound]
solubility [1]: ~490 µg/mL (≈ 1280 µM)

The remaining lines, values ahead:

solubility [1]: ~740 µg/mL (≈ 1650 µM)
Molecule: COCCN(C)Cc1nc(Cc2cccc(C)c2)n(-c2ccc(S(N)(=O)=O)cc2F)n1 [Drug 4]

solubility [1]: ~650 µg/mL (≈ 1660 µM)
Molecule: Cc1ccc(C)c(Cc2nc(CO)nn2-c2ccc(S(N)(=O)=O)cc2F)c1 [Drug 3]

logP (Log P of Drug 1): ~3
solubility [1]: ~10 µg/mL (≈ 31.8 µM)
Free Drug [3]: 11 µg/mL
Molecule: Cc1onc(-c2ccccc2)c1-c1ccc(S(N)(=O)=O)cc1 [Drug 1, 4-(5-methyl-3-phenyl-4-isoxazolyl) benzenesulfonamide]
